How the values were obtained:
[1] = target: T1, human S100A9 binding to human RAGE (Homo sapiens, UniProt P06702); experiment: SPR: inhibition of human S100A9 binding to immobilised human RAGE; details: read-out: S100A9 binding IC50, hS100A9 RAGE; Table S1
T1 construct: purchased R&D Systems (RAGE/Fc); S100A9 made in house
T1 sequence (P06702 1-114): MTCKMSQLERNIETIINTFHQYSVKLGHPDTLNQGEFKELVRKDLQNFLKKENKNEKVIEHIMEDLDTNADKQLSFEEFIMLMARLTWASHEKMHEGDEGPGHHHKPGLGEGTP
Experimental: (§1) The SPR analysis was carried out with the Biacore 3000 system (GE Healthcare). Sensor chips, amine coupling kit, immobilization and running buffers, and regeneration solutions were obtained from GE Healthcare. Working solutions of all reagents used for Biacore analysis were prepared in 0.01 M Hepes, 0.15 M NaCl (pH 7.4) containing 0.005% v/v Surfactant P-20 (HBS-P; GE Healthcare) by buffer exchange on Fast Protein Desalting Micro-Spin Columns from Pierce. ABR-215757 was immobilised onto a CM5 chip through an amino-linker (ABR-224649). […] Activity of ligands after immobilisation was tested by injecting specific antibodies (unpublished data). In some experiments, S100A9 was immobilized either by random amine coupling or with a known orientation (i.e., by sulhydryl group conjugation to the only cysteine in S100A9 at position 3).
(§2) Binding to the various surfaces was performed by injecting the analyte at a flow rate of 30 μl/min in a physiological buffer (HBS-P) containing 1 mM Ca^2+ and 10 μM Zn^2+ as proposed for S100A8/9 by Robinson et al.. A typical analysis cycle consists of: (1) pumping running buffer for 1 min to obtain a stable baseline; (2) injection of sample for an appropriate period of time (association); (3) pumping running buffer for 2.5 min (dissociation); (4) injection of a short pulse (30 s) of 15 μl 10 mM glycine-HCl (pH 2.0) (regeneration); and (5) pumping running buffer for 2 min (stabilisation after regeneration) at a flow rate of 30 μl/min. […] In one experiment, S100A9 was injected into a buffer with a fixed Ca^2+ concentration (1 mM) and Zn^2+ in the range 0–50 μM. In a second experiment, Ca^2+ was varied from 0–2 mM at a fixed Zn^2+ concentration (10 μM). In subsequent analyses, regeneration was carried out under more mild conditions, i.e., by injecting 30 μl of HBS-P containing 3 mM EDTA (HBS-EP; GE Healthcare) for 60 s, to prolong the lifespan of the chip.
(§3) Compounds were also injected over the immobilised surfaces in the absence of S100A9 to exclude, or make possible correction for, any direct binding of compound to the surface.
(§4) Evaluation was carried out using BIAevaluation Software version 3.2 (GE Healthcare). The response at steady-state was obtained by fit of sensorgrams to standard binding models, where appropriate, or calculated as responses at late association or early dissociation phase using the Steady state affinity function in BIAevaluation. Affinity was determined from kinetic analysis (on- and off-rates) or as the apparent affinity after plotting responses versus concentration of analyte in a saturation curve. In the inhibition assay format, the competitor concentration yielding 50% inhibition (IC50) was calculated by fitting data to a one-site competition model in GraphPad Prism.

[2] = target: T2, human S100A9 binding to human TLR4/MD2 (Homo sapiens, UniProt P06702); experiment: SPR: inhibition of human S100A9 binding to immobilised human TLR4/MD2; details: for IC50: Table S1, read-out: S100A9 binding IC50, hS100A9 TLR4
T2 construct: purchased R&D Systems (TLR4/MD-2 complex); S100A9 made in house
T2 sequence (P06702 1-114): T1 sequence (P06702 1-114)
Experimental: as §1, §2, §3, §4

[3] = target: T3, mS100A9 (Mus musculus, UniProt P31725); experiment: SPR: inhibition of mouse S100A9 binding to immobilised ABR-224649; details: Table S1
T3 construct: made in house; host or cells: Escherichia coli (or purified from granulocytes)
T3 sequence (P31725 1-113): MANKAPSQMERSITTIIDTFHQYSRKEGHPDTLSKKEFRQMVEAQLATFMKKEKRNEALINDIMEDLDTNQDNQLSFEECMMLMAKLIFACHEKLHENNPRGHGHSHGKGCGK
Experimental: as §1, §2, §3, §4

[4] = target: T4, mS100A9 and mRAGE/hFc (Mus musculus, UniProt P31725); experiment: SPR: inhibition of mouse S100A9 binding to immobilised mouse RAGE; details: read-out: S100A9 binding IC50, mS100A9 RAGE; Table S1
T4 construct: purchased R&D Systems (mRAGE/Fc); S100A9 made in house
T4 sequence (P31725 2-113 limits assumed): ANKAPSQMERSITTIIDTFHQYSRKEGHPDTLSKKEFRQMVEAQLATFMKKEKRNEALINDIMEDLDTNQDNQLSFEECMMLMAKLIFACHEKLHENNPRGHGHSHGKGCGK
Experimental: as §1, §2, §3, §4

[5] = target: T5, mS100A9 and mLPS-Trap (Mus musculus, UniProt P31725); experiment: SPR: inhibition of mouse S100A9 binding to immobilised mouse TLR4/MD2 fusion protein (mLPS-Trap); details: for IC50: Table S1
T5 sequence (P31725 2-113 limits assumed): T4 sequence (P31725 2-113 limits assumed)
Experimental: as §1, §2, §3, §4

[6] = target: T6, mS100A8/A9 and mRAGE (Mus musculus, UniProt P31725); experiment: SPR: inhibition of mouse S100A8/A9 binding to mouse RAGE; details: read-out: S100A8-9 binding IC50, mS100A8/A9 RAGE; Table S1
T6 construct: purchased R&D Systems (mRAGE/Fc); S100A8/A9 made in house
T6 sequence (P31725 2-113 limits assumed): T4 sequence (P31725 2-113 limits assumed)
T6 sequence (P27005 2-89 partner limits assumed): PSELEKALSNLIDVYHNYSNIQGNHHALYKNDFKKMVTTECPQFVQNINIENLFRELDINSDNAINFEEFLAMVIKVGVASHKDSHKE
Experimental: as §1, §2, §3, §4

[7] = target: T7, mS100A8/A9 and mLPS-Trap (Mus musculus, UniProt P31725); experiment: SPR: inhibition of mouse S100A8/A9 binding to mLPS-Trap; details: Table S1; read-out: S100A8-9 binding IC50, mS100A8/A9 TLR4
T7 sequence (P31725 2-113 limits assumed): T4 sequence (P31725 2-113 limits assumed)
Experimental: as §1, §2, §3, §4

[8] = tested on: aEAE development in SLJ/N mice; experiment: acute experimental autoimmune encephalomyelitis (aEAE) in mice; assay type: in vivo, mouse
Description: A training set of five quinoline derivatives with structural diversification performed at position 5 of the quinoline ring system was used for the SAR. PCA was used to uncover any relationship between the binding activities of the quinoline derivatives at the S100 proteins and the inhibitory effect of these derivatives in the aEAE model. PLS was then used to model the relationship between the physiochemical descriptors used to characterize the compounds and their biological responses. […] All variables were mean centred and scaled to unit variance.

[9] = target: T8, human S100A9 (Homo sapiens, UniProt P06702); experiment: SPR: human S100A9 binding to immobilised ABR-224649 (Q compound), direct binding and displacement
T8 construct: made in house; host or cells: Escherichia coli (or purified from granulocytes)
T8 sequence (P06702 1-114): T1 sequence (P06702 1-114)
Experimental: as §1, §2, §3, §4

| Compound | IC50 [1] | IC50 [2] | IC50 [3] | IC50 [4] | IC50 [5] | IC50 [6] | IC50 [7] | aEAE Inhibition ED50 [8] | ability to displace S100A9 binding to immobilised ABR-224649 ([9]; coinjected with S100A9, unpublished data) | Kd ([9]; steady-state responses vs 25–200 nM S100A9, 1 mM Ca2+, 10 μM Zn2+, read-out: half-maximal binding of S100A9 to immobilised ABR-224649) | effect on hS100A9 binding to immobilised hTLR4/MD2 ([2]; 200 ng/ml) | effect on mS100A9 binding to immobilised mLPS-Trap [5] |
| --- | --- | --- | --- | --- | --- | --- | --- | --- | --- | --- | --- | --- |
| CCN(C(=O)c1c(O)c2ccccc2n(C)c1=O)c1ccccc1 [ABR-212662] | 436 µM | 415 µM | 1940 µM | 1030 µM | 1970 µM | 720 µM | 576 µM | 1.87 mg/kg | – | – | – | – |
| CCN(C(=O)c1c(O)c2c(C)cccc2n(C)c1=O)c1ccccc1 [ABR-215111] | 168 µM | 217 µM | 1340 µM | 783 µM | 1240 µM | 310 µM | 293 µM | 0.55 mg/kg | – | – | – | – |
| CCN(C(=O)c1c(O)c2c(SC)cccc2n(C)c1=O)c1ccccc1 [ABR-215628] | 135 µM | 154 µM | 906 µM | 447 µM | 780 µM | 174 µM | 257 µM | 0.20 mg/kg | – | – | – | – |
| CCN(C(=O)c1c(O)c2c(C(F)(F)F)cccc2n(C)c1=O)c1ccccc1 [ABR-215629] | – | 79 µM | 916 µM | 230 µM | 741 µM | 351 µM | 301 µM | 0.13 mg/kg | – | – | – | – |
| CCN(C(=O)c1c(O)c2c(Br)cccc2n(C)c1=O)c1ccccc1 [ABR-215727] | 78.7 µM | 87.9 µM | 522 µM | 191 µM | 440 µM | 164 µM | 200 µM | 0.16 mg/kg | – | – | – | – |
| CCc1cccc2c1c(O)c(C(=O)N(CCOCCN)c1ccccc1)c(=O)n2C [ABR-224649] | – | – | – | – | – | – | – | – | very similar ability to displace binding as ABR-215757 | 0.085 µM | – | – |
| lipopolysaccharide [LPS, reference compound] | – | – | – | – | – | – | – | – | – | – | no effect | no effect |

— PMC2671563 (PLoS Biology, 2009)
